# Laboratory results taken from PubChem BioAssay (NCI).
#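 A five-concentration, 48-hour dose response in 96-well plates underlies each endpoint, interpolated linearly between surrounding concentrations. TGI: concentration producing complete growth inhibition.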
# How the values were obtained:
# Assay in all cases: DTP human tumour cell line panel, 48 h
# OVCAR-5 ovarian = tested on: OVCAR-5 ovarian
# SN12C renal = tested on: SN12C renal
# T-47D breast = tested on: T-47D breast
# M14 melanoma = tested on: M14 melanoma
# SNB-19 CNS = tested on: SNB-19 CNS
# MDA-MB-435 = tested on: MDA-MB-435
# PC-3 prostate = tested on: PC-3 prostate
# HT29 colon = tested on: HT29 colon
# NCI-H460 lung = tested on: NCI-H460 lung
# RXF 393 renal = tested on: RXF 393 renal
# A498 renal = tested on: A498 renal
# UACC-257 melanoma = tested on: UACC-257 melanoma
# ACHN renal = tested on: ACHN renal
# SK-OV-3 ovarian = tested on: SK-OV-3 ovarian
# U251 CNS = tested on: U251 CNS
# KM12 colon = tested on: KM12 colon
# MDA-MB-231 breast = tested on: MDA-MB-231 breast
# SF-295 CNS = tested on: SF-295 CNS
# MOLT-4 leukemia = tested on: MOLT-4 leukemia
# K-562 leukemia = tested on: K-562 leukemia
# TK-10 renal = tested on: TK-10 renal
# HOP-62 NSCLC = tested on: HOP-62 NSCLC
# SW-620 colon = tested on: SW-620 colon
# HCC-2998 colon = tested on: HCC-2998 colon
# DU-145 prostate = tested on: DU-145 prostate
# IGROV1 ovarian = tested on: IGROV1 ovarian
# SK-MEL-2 melanoma = tested on: SK-MEL-2 melanoma
# COLO 205 colon = tested on: COLO 205 colon
# NCI-H23 lung = tested on: NCI-H23 lung
# BT-549 breast = tested on: BT-549 breast
# SK-MEL-5 melanoma = tested on: SK-MEL-5 melanoma
# SR leukemia = tested on: SR leukemia
# HOP-92 NSCLC = tested on: HOP-92 NSCLC
# SF-268 CNS = tested on: SF-268 CNS
# HL-60(TB) leukemia = tested on: HL-60(TB) leukemia
# UO-31 renal = tested on: UO-31 renal
# CCRF-CEM leukemia = tested on: CCRF-CEM leukemia
# SK-MEL-28 melanoma = tested on: SK-MEL-28 melanoma
# NCI/ADR-RES ovarian = tested on: NCI/ADR-RES ovarian
# HCT-15 colon = tested on: HCT-15 colon
# EKVX NSCLC = tested on: EKVX NSCLC
# SF-539 CNS = tested on: SF-539 CNS
# UACC-62 melanoma = tested on: UACC-62 melanoma
# A549 NSCLC = tested on: A549 NSCLC
# MCF7 breast = tested on: MCF7 breast
# MDA-N = tested on: MDA-N
# MALME-3M melanoma = tested on: MALME-3M melanoma
# NCI-H226 lung = tested on: NCI-H226 lung
# LOX IMVI melanoma = tested on: LOX IMVI melanoma
# SNB-75 CNS = tested on: SNB-75 CNS
# HCT-116 colon = tested on: HCT-116 colon
# NCI-H522 lung = tested on: NCI-H522 lung
# RPMI-8226 leukemia = tested on: RPMI-8226 leukemia
# OVCAR-4 ovarian = tested on: OVCAR-4 ovarian
# OVCAR-8 ovarian = tested on: OVCAR-8 ovarian
# OVCAR-3 ovarian = tested on: OVCAR-3 ovarian
# HS 578T breast = tested on: HS 578T breast
# 786-0 renal = tested on: 786-0 renal
# CAKI-1 renal = tested on: CAKI-1 renal
smiles,measurement,setting,value
O=C1/C(=C/c2ccc3c(c2)CCC3)Cc2cc3c(cc21)CCC3,TGI,OVCAR-5 ovarian,> 100 µM
same,TGI,SN12C renal,> 100 µM
same,TGI,T-47D breast,> 100 µM
same,TGI,M14 melanoma,> 100 µM
same,TGI,SNB-19 CNS,> 100 µM
same,TGI,MDA-MB-435,> 100 µM
same,TGI,PC-3 prostate,> 100 µM
same,TGI,HT29 colon,> 100 µM
same,TGI,NCI-H460 lung,> 100 µM
same,TGI,RXF 393 renal,> 100 µM
same,TGI,A498 renal,> 100 µM
same,TGI,UACC-257 melanoma,> 100 µM
same,TGI,ACHN renal,> 100 µM
same,TGI,SK-OV-3 ovarian,> 100 µM
same,TGI,U251 CNS,> 100 µM
same,TGI,KM12 colon,> 100 µM
same,TGI,MDA-MB-231 breast,> 100 µM
same,TGI,SF-295 CNS,> 100 µM
same,TGI,MOLT-4 leukemia,> 100 µM
same,TGI,K-562 leukemia,> 100 µM
same,TGI,TK-10 renal,> 100 µM
same,TGI,HOP-62 NSCLC,> 100 µM
same,TGI,SW-620 colon,> 100 µM
same,TGI,HCC-2998 colon,> 100 µM
same,TGI,DU-145 prostate,> 100 µM
same,TGI,IGROV1 ovarian,> 100 µM
same,TGI,SK-MEL-2 melanoma,> 100 µM
same,TGI,COLO 205 colon,> 100 µM
same,TGI,NCI-H23 lung,> 100 µM
same,TGI,BT-549 breast,> 100 µM
same,TGI,SK-MEL-5 melanoma,> 100 µM
same,TGI,SR leukemia,> 100 µM
same,TGI,HOP-92 NSCLC,97.6 µM
same,TGI,SF-268 CNS,> 100 µM
same,TGI,HL-60(TB) leukemia,> 100 µM
same,TGI,UO-31 renal,> 100 µM
same,TGI,CCRF-CEM leukemia,> 100 µM
same,TGI,SK-MEL-28 melanoma,> 100 µM
same,TGI,NCI/ADR-RES ovarian,> 100 µM
same,TGI,HCT-15 colon,> 100 µM
same,TGI,EKVX NSCLC,> 100 µM
same,TGI,SF-539 CNS,> 100 µM
same,TGI,UACC-62 melanoma,> 100 µM
same,TGI,A549 NSCLC,> 100 µM
same,TGI,MCF7 breast,> 100 µM
same,TGI,MDA-N,> 100 µM
same,TGI,MALME-3M melanoma,> 100 µM
same,TGI,NCI-H226 lung,> 100 µM
same,TGI,LOX IMVI melanoma,> 100 µM
same,TGI,SNB-75 CNS,> 100 µM
same,TGI,HCT-116 colon,> 100 µM
same,TGI,NCI-H522 lung,> 100 µM
same,TGI,RPMI-8226 leukemia,> 100 µM
same,TGI,OVCAR-4 ovarian,> 100 µM
same,TGI,OVCAR-8 ovarian,> 100 µM
same,TGI,OVCAR-3 ovarian,> 100 µM
C=C(C)[C@@H]1CC[C@]2(COC(C)=O)CC[C@]3(C)[C@H](CC[C@@H]4[C@@]5(C)CC[C@H](OC(C)=O)C(C)(C)[C@@H]5CC[C@]43C)[C@@H]12,TGI,SN12C renal,> 50 µM
same,TGI,M14 melanoma,> 50 µM
same,TGI,SNB-19 CNS,> 50 µM
same,TGI,MDA-MB-435,> 50 µM
same,TGI,PC-3 prostate,> 50 µM
same,TGI,HT29 colon,> 50 µM
same,TGI,A498 renal,> 50 µM
same,TGI,UACC-257 melanoma,> 50 µM
same,TGI,ACHN renal,> 50 µM
same,TGI,SK-OV-3 ovarian,> 50 µM
same,TGI,U251 CNS,> 50 µM
same,TGI,MDA-MB-231 breast,> 50 µM
same,TGI,MOLT-4 leukemia,> 50 µM
same,TGI,K-562 leukemia,> 50 µM
same,TGI,HOP-62 NSCLC,> 50 µM
same,TGI,HS 578T breast,> 50 µM
same,TGI,SW-620 colon,> 50 µM
same,TGI,786-0 renal,> 50 µM
same,TGI,HCC-2998 colon,1.67 µM
same,TGI,IGROV1 ovarian,> 50 µM
same,TGI,SK-MEL-2 melanoma,> 50 µM
same,TGI,COLO 205 colon,> 50 µM
same,TGI,NCI-H23 lung,> 50 µM
same,TGI,BT-549 breast,> 50 µM
same,TGI,SK-MEL-5 melanoma,> 50 µM
same,TGI,SR leukemia,> 50 µM
same,TGI,HOP-92 NSCLC,> 50 µM
same,TGI,HL-60(TB) leukemia,> 50 µM
same,TGI,UO-31 renal,> 50 µM
same,TGI,CCRF-CEM leukemia,> 50 µM
same,TGI,SK-MEL-28 melanoma,> 50 µM
same,TGI,NCI/ADR-RES ovarian,> 50 µM
same,TGI,HCT-15 colon,> 50 µM
same,TGI,SF-539 CNS,> 50 µM
same,TGI,UACC-62 melanoma,> 50 µM
same,TGI,A549 NSCLC,> 50 µM
same,TGI,MDA-N,> 50 µM
same,TGI,NCI-H226 lung,> 50 µM
same,TGI,LOX IMVI melanoma,> 50 µM
same,TGI,SNB-75 CNS,> 50 µM
same,TGI,HCT-116 colon,> 50 µM
same,TGI,NCI-H522 lung,> 50 µM
same,TGI,RPMI-8226 leukemia,> 50 µM
same,TGI,OVCAR-4 ovarian,> 50 µM
same,TGI,OVCAR-8 ovarian,> 50 µM
same,TGI,OVCAR-3 ovarian,> 50 µM
CCN(CC)CCCNc1nc2ccccc2[n+]([O-])n1,TGI,OVCAR-5 ovarian,> 100 µM
same,TGI,SN12C renal,> 100 µM
same,TGI,T-47D breast,> 100 µM
same,TGI,M14 melanoma,> 100 µM
same,TGI,SNB-19 CNS,> 100 µM
same,TGI,MDA-MB-435,> 100 µM
same,TGI,PC-3 prostate,> 100 µM
same,TGI,HT29 colon,> 100 µM
same,TGI,NCI-H460 lung,> 100 µM
same,TGI,RXF 393 renal,> 100 µM
same,TGI,A498 renal,> 100 µM
same,TGI,UACC-257 melanoma,> 100 µM
same,TGI,ACHN renal,> 100 µM
same,TGI,U251 CNS,> 100 µM
same,TGI,KM12 colon,> 100 µM
same,TGI,MDA-MB-231 breast,> 100 µM
same,TGI,SF-295 CNS,> 100 µM
same,TGI,MOLT-4 leukemia,> 100 µM
same,TGI,K-562 leukemia,> 100 µM
same,TGI,TK-10 renal,> 100 µM
same,TGI,CAKI-1 renal,> 100 µM
same,TGI,SW-620 colon,> 100 µM
same,TGI,786-0 renal,> 100 µM
same,TGI,HCC-2998 colon,> 100 µM
same,TGI,DU-145 prostate,> 100 µM
same,TGI,IGROV1 ovarian,> 100 µM
same,TGI,SK-MEL-2 melanoma,> 100 µM
same,TGI,COLO 205 colon,> 100 µM
same,TGI,NCI-H23 lung,> 100 µM
same,TGI,BT-549 breast,> 100 µM
same,TGI,SK-MEL-5 melanoma,> 100 µM
same,TGI,SR leukemia,> 100 µM
same,TGI,HOP-92 NSCLC,> 100 µM
same,TGI,SF-268 CNS,> 100 µM
same,TGI,HL-60(TB) leukemia,> 100 µM
same,TGI,UO-31 renal,> 100 µM
same,TGI,CCRF-CEM leukemia,> 100 µM
same,TGI,SK-MEL-28 melanoma,> 100 µM
same,TGI,NCI/ADR-RES ovarian,> 100 µM
same,TGI,HCT-15 colon,> 100 µM
same,TGI,SF-539 CNS,> 100 µM
same,TGI,UACC-62 melanoma,> 100 µM
same,TGI,A549 NSCLC,> 100 µM
same,TGI,MCF7 breast,> 100 µM
same,TGI,MDA-N,> 100 µM
same,TGI,MALME-3M melanoma,> 100 µM
same,TGI,NCI-H226 lung,> 100 µM
same,TGI,SNB-75 CNS,> 100 µM
same,TGI,HCT-116 colon,> 100 µM
same,TGI,NCI-H522 lung,> 100 µM
same,TGI,RPMI-8226 leukemia,> 100 µM
same,TGI,OVCAR-4 ovarian,> 100 µM
same,TGI,OVCAR-8 ovarian,> 100 µM
same,TGI,OVCAR-3 ovarian,> 100 µM
